Data taken from the supplement of paper PMC13380429.

Experiments:
Conditions in all cases: 72 h
U2OS [1] = assay: cell viability relative to DMSO; higher = less toxic
Caco-2 [2] = assay: as above
HepG2 [3] = assay: as above
Calu-3 [4] = assay: as above
Vero E6 [5] = assay: as above
U2OS [6] = assay: drug sensitivity score (DSS) for viability; higher = more toxic; extreme values may be limits of the assay
Caco-2 [7] = assay: as above
HepG2 [8] = assay: as above
Calu-3 [9] = assay: as above
Vero E6 [10] = assay: as above
U2OS [11] = assay: relative viability EC50 (midpoint between 100% and the lowest measured viability); higher = less toxic
Caco-2 [12] = assay: as above
HepG2 [13] = assay: as above
Calu-3 [14] = assay: as above
Vero E6 [15] = assay: as above

Row | SMILES | cell viability (U2OS [1]; 1 nM) | cell viability (U2OS [1]; 10 nM) | cell viability (U2OS [1]; 100 nM) | cell viability (U2OS [1]; 1000 nM) | cell viability (U2OS [1]; 10000 nM) | cell viability (Caco-2 [2]; 1 nM) | cell viability (Caco-2 [2]; 10 nM) | cell viability (Caco-2 [2]; 100 nM) | cell viability (Caco-2 [2]; 1000 nM) | cell viability (Caco-2 [2]; 10000 nM) | cell viability (HepG2 [3]; 1 nM) | cell viability (HepG2 [3]; 10 nM) | cell viability (HepG2 [3]; 100 nM) | cell viability (HepG2 [3]; 1000 nM) | cell viability (HepG2 [3]; 10000 nM) | cell viability (Calu-3 [4]; 1 nM) | cell viability (Calu-3 [4]; 10 nM) | cell viability (Calu-3 [4]; 100 nM) | cell viability (Calu-3 [4]; 1000 nM) | cell viability (Calu-3 [4]; 10000 nM) | cell viability (Vero E6 [5]; 1 nM) | cell viability (Vero E6 [5]; 10 nM) | cell viability (Vero E6 [5]; 100 nM) | cell viability (Vero E6 [5]; 1000 nM) | cell viability (Vero E6 [5]; 10000 nM) | drug sensitivity score (U2OS [6]) | drug sensitivity score (Caco-2 [7]) | drug sensitivity score (HepG2 [8]) | drug sensitivity score (Calu-3 [9]) | drug sensitivity score (Vero E6 [10]) | relative viability EC50 (U2OS [11]) | relative viability EC50 (Caco-2 [12]) | relative viability EC50 (HepG2 [13]) | relative viability EC50 (Calu-3 [14]) | relative viability EC50 (Vero E6 [15])
1 | C[C@@H](N)Cc1c[nH]c2ccc(O)cc12 [alpha-methylserotonin] | 99% | 102% | 99.8% | 97.4% | 107% | 96.1% | 93% | 88% | 92.8% | 101% | 105% | 102% | 100% | 96.9% | 105% | 89.6% | 99.1% | 95.3% | 92.9% | 91.1% | 91.1% | 94.5% | 94.4% | 90.3% | 104% | 0 | 0 | 0 | 0 | 0 | > 10 µM | > 10 µM | > 10 µM | > 10 µM | > 10 µM
2 | CC(C)(C)C(=O)CN1C(=O)[C@H](NC(=O)Nc2cccc(C(=O)O)c2)CN(C2CCCCC2)c2ccccc21 [nastorazepide] | 100% | 96.7% | 103% | 96.5% | 100% | 96.6% | 95.4% | 93.1% | 92.7% | 95.8% | 99.9% | 106% | 96.7% | 108% | 95.9% | 96.7% | 104% | 113% | 98.8% | 118% | 104% | 105% | 99.2% | 105% | 98.8% | 0 | 0 | 0 | 0 | 0 | > 10 µM | > 10 µM | > 10 µM | > 10 µM | > 10 µM
3 | S=C=Nc1ccc(N=C=S)cc1 [bitoscanate] | 94.2% | 101% | 96.3% | 100% | 105% | 91.8% | 96.6% | 101% | 106% | 103% | 97.9% | 82.6% | 103% | 91% | 105% | 104% | 103% | 94.6% | 95.3% | 102% | 90.7% | 93.6% | 93.5% | 92.2% | 104% | 0 | 0 | 0 | 0 | 0 | > 10 µM | > 10 µM | > 10 µM | > 10 µM | > 10 µM
